In patent US12565490B2, “Inhibitors of Receptor Interacting Protein Kinase I for the treatment of disease” (Board of Regents, The University of Texas System, priority 2020, dated 2026) one finds IC50 data, which are given here for 29 compounds.

The structures appear in SMILES notation. A value given as a limit tells only on which side of the number the result lay.

In general, IC50 refers to the concentration that gives 50% inhibition.

The test system of the experiment is human monocytic cell line U937. In words: Human U937 cellular necroptosis assay. The class given is cell-based. The conditions noted are these: U-937; U937 cells stimulated with 25 ng/mL human TNFalpha and 25 μM z-VAD-FMK; 22 hr; viability by Cell Titer-Glo 2.0; read-out: hU937 IC50. As for the experimental part:
Human U937 Cellular Necroptosis Assay
The human monocytic cell line U937 (CRL-1593.2) may be purchased from ATCC. The cells are routinely maintained in RPMI-1640 Medium (Gibco, Catalog #11875-093) supplemented with 10% heat inactivated fetal bovine serum (Gibco, Catalog #16140-071), 100 units/mL penicillin and 100 μg/mL streptomycin (Gibco, Catalog #15140-122), in a humidified incubator (37° C., 5% CO2). For the assay, cells are resuspended in RPMI-1640 phenol red free Media (Gibco, Catalog #11835-030) supplemented with 10% fetal bovine serum (Sigma, Catalog #F2442), 100 units/mL penicillin and 100 ug/mL streptomycin. Cells are stimulated with 25 ng/mL human TNFalpha (Cell Sciences, Catalog #CSI15659B) and 25 μM z-VAD-FMK (R&D Systems, Catalog #FMK001) followed by seeding 5000 cells per well in a volume of 40 μL to a white, CulturPlate-384 (Perkin Elmer, Catalog #6007680). Stock solutions of the test compounds are prepared in 100% DMSO (Sigma, Catalog #D2650) and serially diluted 1:3 using 100% DMSO. Compounds are additionally diluted 1:40 in assay medium, and 10 μL/well was transferred to the plate. Following the compound addition, the plate is incubated at 37° C. and 5% CO2 for 22 hr. After 22 hr, viability is assessed with the addition of 20 μL of Cell Titer-Glo 2.0 (Promega, Catalog #G9243). The tissue culture plate is shaken on an orbital shaker at 300 RPM for 15 minutes at room temperature in the dark. Luminescence is measured using a PerkinElmer Envision™ plate reader. IC50 values are calculated using a four-parameter logistic curve fit using Genedata Screener software. Compounds disclosed herein are expected to have activity in this assay.
With `CN1C(=O)[C@@H](NC(=O)c2ncc(Cl)c(C3COCCO3)n2)COc2cc(Cl)cnc21` (single isomer, unassigned) [Example 163b], the IC50 came out at 87.9 nM.
With `COc1cc2c(cn1)N(C)C(=O)[C@@H](NC(=O)c1ncc(C)c(-c3ccccc3)n1)CC2` (stereo in doubt) [Example 11, N-(7-methoxy-1-methyl-2-oxo-2,3,4,5-tetrahydro-1H-pyrido[3,4-b]azepin-3-yl)-5-methyl-4-phenylpyrimidine-2-carboxamide] the figure was 459 nM; with `Cc1ccc(-c2nc(C(=O)N[C@H]3COc4cc(C#N)ccc4N(C)C3=O)ncc2C)cc1F` [Example 1, (S)—N-(8-cyano-5-methyl-4-oxo-2,3,4,5-tetrahydrobenzo[b][1,4]oxazepin-3-yl)-4-(3-fluoro-4-methylphenyl)-5-methylpyrimidine-2-carboxamide], 12.4 nM; with `O=C(NC1CCc2ccccc2NC1=O)c1ncc(C2CC2)c(-c2ccccc2)n1` (centres unmarked) [Example 2, 5-cyclopropyl-N-(2-oxo-2,3,4,5-tetrahydro-1H-benzo[b]azepin-3-yl)-4-phenylpyrimidine-2-carboxamide], 509 nM.
To `Cc1cnc(C(=O)NC2CCc3ccccc3NC2=O)nc1-c1ccccc1` (centres unmarked) [Example 3, 5-methyl-N-(2-oxo-2,3,4,5-tetrahydro-1H-benzo[b]azepin-3-yl)-4-phenylpyrimidine-2-carboxamide] belongs 18.5 nM.
To `O=C(NC1CCc2ccccc2NC1=O)c1nccc(-c2ccccc2)n1` (centres unmarked) [Example 4, N-(2-oxo-2,3,4,5-tetrahydro-1H-benzo[b]azepin-3-yl)-4-phenylpyrimidine-2-carboxamide] belongs 2160 nM; to `Cc1cnc(C(=O)N[C@H]2COc3cc(C#N)ccc3N(C)C2=O)nc1-c1ccccc1` [Example 5, (S)-N-(8-cyano-5-methyl-4-oxo-2,3,4,5-tetrahydro-benzo[b][1,4]oxazepin-3-yl)-5-methyl-4-phenylpyrimidine-2-carboxamide], 15.1 nM; to `Cc1cnc(C(=O)N[C@H]2COc3cccnc3N(C)C2=O)nc1-c1ccccc1` [Example 6, (S)-5-methyl-N-(5-methyl-4-oxo-2,3,4,5-tetrahydropyrido[3,2-b][1,4]oxazepin-3-yl)-4-phenylpyrimidine-2-carboxamide], 12.5 nM.
Take `Cc1cnc(C(=O)NC2CCc3cc(F)cc(F)c3NC2=O)nc1-c1ccccc1` (centres unmarked) [Example 7, N-(7,9-difluoro-2-oxo-2,3,4,5-tetrahydro-1H-benzo[b]azepin-3-yl)-5-methyl-4-phenylpyrimidine-2-carboxamide]: the IC50 came to 22.2 nM.
Regarding `O=C(NC1CCc2ccccc2NC1=O)c1nc(-c2ccccc2)c(Cl)cc1Cl` (centres unmarked) [Example 8, 3,5-dichloro-N-(2-oxo-2,3,4,5-tetrahydro-1H-benzo[b]azepin-3-yl)-6-phenylpicolinamide], the half-maximal inhibitory concentration (IC50) was determined as 354 nM.
To `Cc1cnc(C(=O)N[C@H]2CCc3ccccc3NC2=O)nc1-c1ccc(F)cc1` [Example 9, (S)-4-(4-fluorophenyl)-5-methyl-N-(2-oxo-2,3,4,5-tetrahydro-1H-benzo[b]azepin-3-yl)pyrimidine-2-carboxamide] belongs 10.2 nM; to `Cc1cnc(C(=O)N[C@H]2CCc3ccccc3NC2=O)nc1-c1ccc(F)c(F)c1` [Example 10, (S)-4-(3,4-difluorophenyl)-5-methyl-N-(2-oxo-2,3,4,5-tetrahydro-1H-benzo[b]azepin-3-yl)pyrimidine-2-carboxamide], 15.4 nM; to `Cc1cnc(C(=O)N[C@H]2CCc3ccccc3NC2=O)nc1-c1cccc(F)c1` [Example 12, (S)-4-(3-fluorophenyl)-5-methyl-N-(2-oxo-2,3,4,5-tetrahydro-1H-benzo[b]azepin-3-yl)pyrimidine-2-carboxamide], 14.6 nM.
To `Cc1ccc(-c2nc(C(=O)N[C@H]3CCc4ccccc4NC3=O)ncc2C)cc1` [Example 13, (S)-5-methyl-N-(2-oxo-2,3,4,5-tetrahydro-1H-benzo[b]azepin-3-yl)-4-(p-tolyl)pyrimidine-2-carboxamide] belongs 27.6 nM.
For `Cc1cnc(C(=O)N[C@H]2COc3cc(C#N)ccc3N(C)C2=O)nc1N1CCCCC1` [Example 14, (S)-N-(8-cyano-5-methyl-4-oxo-2,3,4,5-tetrahydro-benzo[b][1,4]oxazepin-3-yl)-5-methyl-4-(piperidin-1-yl)-pyrimidine-2-carboxamide], the IC50 was 119 nM.
To `Cc1cnc(C(=O)NC2CCn3nc(C(F)(F)F)cc3N(C)C2=O)nc1-c1ccccc1` (centres unmarked) [Example 15, 5-methyl-N-(4-methyl-5-oxo-2-(trifluoromethyl)-5,6,7,8-tetrahydro-4H-pyrazolo[1,5-a][1,3]diazepin-6-yl)-4-phenyl-pyrimidine-2-carboxamide] belongs 498 nM; to `Cc1cnc(C(=O)N[C@@H]2C(=O)N(C)c3ncccc3O[C@@H]2C)nc1-c1ccccc1` [Example 16, N-((2R,3S)-2,5-dimethyl-4-oxo-2,3,4,5-tetrahydropyrido[3,2-b][1,4]oxazepin-3-yl)-5-methyl-4-phenylpyrimidine-2-carboxamide], 36.1 nM.
To `Cc1cnc(C(=O)N[C@H]2COc3cc(C#N)ccc3N(C)C2=O)nc1-c1ccc(F)c(F)c1` [Example 17, (S)-N-(8-cyano-5-methyl-4-oxo-2,3,4,5-tetrahydro-benzo[b][1,4]oxazepin-3-yl)-4-(3,4-difluorophenyl)-5-methyl-pyrimidine-2-carboxamide] belongs 40.8 nM; to `Cc1cnc(C(=O)Nc2cccc(Cl)c2F)nc1-c1ccccc1` [Example 18, N-(3-chloro-2-fluorophenyl)-5-methyl-4-phenylpyrimidine-2-carboxamide], 1890 nM.
For `Cc1cnc(C(=O)N[C@H]2COc3cc(C#N)ccc3N(C)C2=O)nc1N1CCC(F)(F)CC1` [Example 19, (S)-N-(8-cyano-5-methyl-4-oxo-2,3,4,5-tetrahydro-benzo[b][1,4]oxazepin-3-yl)-4-(4,4-difluoropiperidin-1-yl)-5-methylpyrimidine-2-carboxamide], the IC50 amounted to 748 nM.
Regarding `Cc1cnc(C(=O)N[C@H]2COc3cc(C#N)ccc3N(C)C2=O)nc1N1CCCC1` [Example 20, (S)-N-(8-cyano-5-methyl-4-oxo-2,3,4,5-tetrahydro-benzo[b][1,4]oxazepin-3-yl)-5-methyl-4-(pyrrolidin-1-yl)-pyrimidine-2-carboxamide], the IC50 came to 482 nM.
On to `Cc1cnc(C(=O)N[C@H]2COc3cccnc3N(C)C2=O)nc1-c1ccc(F)c(F)c1` [Example 21, (S)-4-(3,4-difluorophenyl)-5-methyl-N-(5-methyl-4-oxo-2,3,4,5-tetrahydropyrido[3,2-b][1,4]oxazepin-3-yl)pyrimidine-2-carboxamide], for which the IC50 came out at 14.8 nM.
With `Cc1cnc(C(=O)N[C@H]2COc3ccc(Br)cc3N(C)C2=O)nc1-c1ccccc1` [Example 22, (S)-N-(7-bromo-5-methyl-4-oxo-2,3,4,5-tetrahydro-benzo[b][1,4]oxazepin-3-yl)-5-methyl-4-phenylpyrimidine-2-carboxamide], the IC50 turned out to be 12.1 nM.
On to `Cc1cnc(C(=O)N[C@H]2COc3cc(C#N)ccc3N(C)C2=O)nc1N1CCC(F)(F)C1` [Example 23, (S)-N-(8-cyano-5-methyl-4-oxo-2,3,4,5-tetrahydro-benzo[b][1,4]oxazepin-3-yl)-4-(3,3-difluoropyrrolidin-1-yl)-5-methylpyrimidine-2-carboxamide], for which the IC50 was 830 nM.
To `CN1C(=O)[C@@H](NC(=O)c2ncc(Cl)c(-c3ccccc3)n2)COc2cc(C#N)ccc21` [Example 24, (S)-5-chloro-N-(8-cyano-5-methyl-4-oxo-2,3,4,5-tetrahydro-benzo[b][1,4]oxazepin-3-yl)-4-phenylpyrimidine-2-carboxamide] belongs 19.2 nM.
As for `Cc1ccc(C(=O)Nc2cccc(Cl)c2F)nc1Br` [Example 25, 6-bromo-N-(3-chloro-2-fluorophenyl)-5-methyl-picolinamide], the IC50 was not below 10000 nM.
Take `Cc1cnc(C(=O)N[C@H]2COc3ccc(N4CC5(CCOCC5)C4)cc3N(C)C2=O)nc1-c1ccccc1` [Example 26, (S)-5-methyl-N-(5-methyl-4-oxo-7-(7-oxa-2-azaspiro[3.5]nonan-2-yl)-2,3,4,5-tetrahydrobenzo[b]-[1,4]oxazepin-3-yl)-4-phenyl-pyrimidine-2-carboxamide]: the IC50 turned out to be 14.6 nM.
To `CN1C(=O)[C@@H](NC(=O)c2ncc(Cl)c(-c3ccccc3)n2)COc2cccnc21` [Example 27, (S)-5-chloro-N-(5-methyl-4-oxo-2,3,4,5-tetrahydropyrido[3,2-b][1,4]oxazepin-3-yl)-4-phenylpyrimidine-2-carboxamide] belongs 26.7 nM; to `Cc1cnc(C(=O)N[C@H]2COc3cc(Br)cnc3N(C)C2=O)nc1-c1ccccc1` [Example 29, (S)-N-(8-bromo-5-methyl-4-oxo-2,3,4,5-tetrahydropyrido[3,2-b][1,4]oxazepin-3-yl)-5-methyl-4-phenylpyrimidine-2-carboxamide], 11.7 nM.
